Reference: US20090270444A1, “1,7-Naphthyridines” (priority 2004, published 2009)

Legend:
Type in all cases: biochemical
[1] = biological target: T1, Human recombinant PDE4B (Homo sapiens, UniProt Q07343); test: PDE4B IMAP fluorescence polarisation assay; conditions: human recombinant PDE4B (HSPDE4B2B); accurate to within ±0.5; read-out: PDE4B mean pIC50 (converted)
T1 construct: made in house; host or cells: Saccharomyces cerevisiae strain GL62
Text: Human recombinant PDE4B, in particular the 2B splice variant thereof (HSPDE4B2B), is disclosed in WO 94/20079 and also in M. M. McLaughlin et al., “A low Km, rolipram-sensitive, cAMP-specific phosphodiesterase from human brain: cloning and expression of cDNA, biochemical characterisation of recombinant protein, and tissue distribution of mRNA”, J. Biol. Chem., 1993, 268, 6470-6476. For example, in Example 1 of WO 94/20079, human recombinant PDE4B is described as being expressed in the PDE-deficient yeast Saccharomyces cerevisiae strain GL62, e.g. after induction by addition of 150 uM CuSO4, and 100,000×g supernatant fractions of yeast cell lysates are described for use in the harvesting of PDE4B enzyme.
(§1) The ability of compounds to inhibit PDE catalytic activity was determined by IMAP Fluorescence Polarisation (FP) assay (Molecular Devices Ltd code: R8062) in 384-well format. Test compounds (small volume, e.g. 0.5 μl, of solution in DMSO) were preincubated at ambient temperature in black 384-well microtitre plates (supplier: NUNC, code 262260) with PDE enzyme in 10 mM Tris-HCl buffer pH 7.2, 10 mM MgCl2, 0.1% (w/v) bovine serum albumin, 0.05% NaN3 for 10-30 minutes. The enzyme level was set so that reaction was linear throughout the incubation.
For the PDE3, PDE4B and PDE4D assays Fluorescein adenosine 3′,5′-cyclic phosphate (Molecular Devices Ltd code: R7091) was added to give ˜40 nM final concentration. For the PDE5 and PDE6 assays Fluorescein guanosine 3′,5′-cyclic phosphate (Molecular Devices Ltd code: R7090) was added to give ˜40 nM final concentration. Plates were mixed on an orbital shaker for 10 seconds and incubated at ambient temperature for 40 minutes. IMAP binding reagent (Molecular Devices Ltd code: R7207) was added (60 μl of a 1 in 400 dilution in binding buffer of the kit stock solution) to terminate the assay. […] The FP ratio of parallel to perpendicular light was measured using an Analyst™ plate reader (from Molecular Devices Ltd). […] Curves were analysed using ActivityBase and XLfit (ID Business Solutions Limited). Results were expressed as pIC50 values.

[2] = biological target: Human recombinant PDE4D (Homo sapiens, UniProt Q08499); test: PDE4D IMAP fluorescence polarisation assay; conditions: human recombinant PDE4D (HSPDE4D3A); accurate to within ±0.5; read-out: PDE4D mean pIC50 (converted)
Procedure: Human recombinant PDE4D (HSPDE4D3A) is disclosed in P. A. Baecker et al., “Isolation of a cDNA encoding a human rolipram-sensitive cyclic AMP phoshodiesterase (PDE IVD)”, Gene, 1994, 138, 253-256.
as §1
(§2) For the PDE3, PDE4B and PDE4D assays Fluorescein adenosine 3′,5′-cyclic phosphate (Molecular Devices Ltd code: R7091) was added to give ˜40 nM final concentration. For the PDE5 and PDE6 assays Fluorescein guanosine 3′,5′-cyclic phosphate (Molecular Devices Ltd code: R7090) was added to give ˜40 nM final concentration. Plates were mixed on an orbital shaker for 10 seconds and incubated at ambient temperature for 40 minutes. IMAP binding reagent (Molecular Devices Ltd code: R7207) was added (60 μl of a 1 in 400 dilution in binding buffer of the kit stock solution) to terminate the assay. Plates were allowed to stand at ambient temperature for 1 hour. The FP ratio of parallel to perpendicular light was measured using an Analyst™ plate reader (from Molecular Devices Ltd). […] Curves were analysed using ActivityBase and XLfit (ID Business Solutions Limited). Results were expressed as pIC50 values.

[3] = biological target: Human recombinant PDE5 (Homo sapiens, UniProt O76074); test: PDE5 IMAP fluorescence polarisation assay; conditions: accurate to within ±0.5, read-out: PDE5 mean pIC50 (converted)
Procedure: Human recombinant PDE5 is disclosed in K. Loughney et al., “Isolation and characterisation of cDNAs encoding PDE5A, a human cGMP-binding, cGMP-specific 3′,5′-cyclic nucleotide phosphodiesterase”, Gene, 1998, 216, 139-147.
as §1, §2

[4] = biological target: T2, PDE6 (Bos taurus, UniProt P11541+P23439); test: PDE6 IMAP fluorescence polarisation assay; conditions: PDE6 from bovine retina; accurate to within ±0.5; read-out: PDE6 mean pIC50 (converted)
T2 construct: PDE6 may be purified from bovine retina; from tissue; host or cells: bovine retina
T2 sequence (P11541 2-856 limits assumed): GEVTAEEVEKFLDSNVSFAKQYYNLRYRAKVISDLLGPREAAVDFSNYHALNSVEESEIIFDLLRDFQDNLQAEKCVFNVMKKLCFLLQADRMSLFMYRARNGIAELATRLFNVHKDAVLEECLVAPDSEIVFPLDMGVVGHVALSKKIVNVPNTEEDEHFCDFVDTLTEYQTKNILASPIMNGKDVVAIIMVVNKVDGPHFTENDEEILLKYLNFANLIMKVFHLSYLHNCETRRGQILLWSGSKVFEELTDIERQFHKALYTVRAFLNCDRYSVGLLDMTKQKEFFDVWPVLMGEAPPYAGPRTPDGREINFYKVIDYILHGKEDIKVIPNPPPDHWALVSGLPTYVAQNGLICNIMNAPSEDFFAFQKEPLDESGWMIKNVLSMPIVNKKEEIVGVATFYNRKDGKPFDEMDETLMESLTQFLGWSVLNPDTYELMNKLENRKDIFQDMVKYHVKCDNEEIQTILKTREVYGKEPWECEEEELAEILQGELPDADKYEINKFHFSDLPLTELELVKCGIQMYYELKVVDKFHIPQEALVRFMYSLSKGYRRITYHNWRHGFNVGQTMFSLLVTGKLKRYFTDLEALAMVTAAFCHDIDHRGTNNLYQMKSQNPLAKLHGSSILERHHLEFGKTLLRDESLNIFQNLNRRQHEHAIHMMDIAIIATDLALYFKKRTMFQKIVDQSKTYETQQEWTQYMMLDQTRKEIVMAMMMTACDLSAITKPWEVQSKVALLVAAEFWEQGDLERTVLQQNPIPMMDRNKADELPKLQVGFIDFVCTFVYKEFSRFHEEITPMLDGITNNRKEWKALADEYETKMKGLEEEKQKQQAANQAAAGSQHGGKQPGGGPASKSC
T2 sequence (P23439 2-850 limits assumed): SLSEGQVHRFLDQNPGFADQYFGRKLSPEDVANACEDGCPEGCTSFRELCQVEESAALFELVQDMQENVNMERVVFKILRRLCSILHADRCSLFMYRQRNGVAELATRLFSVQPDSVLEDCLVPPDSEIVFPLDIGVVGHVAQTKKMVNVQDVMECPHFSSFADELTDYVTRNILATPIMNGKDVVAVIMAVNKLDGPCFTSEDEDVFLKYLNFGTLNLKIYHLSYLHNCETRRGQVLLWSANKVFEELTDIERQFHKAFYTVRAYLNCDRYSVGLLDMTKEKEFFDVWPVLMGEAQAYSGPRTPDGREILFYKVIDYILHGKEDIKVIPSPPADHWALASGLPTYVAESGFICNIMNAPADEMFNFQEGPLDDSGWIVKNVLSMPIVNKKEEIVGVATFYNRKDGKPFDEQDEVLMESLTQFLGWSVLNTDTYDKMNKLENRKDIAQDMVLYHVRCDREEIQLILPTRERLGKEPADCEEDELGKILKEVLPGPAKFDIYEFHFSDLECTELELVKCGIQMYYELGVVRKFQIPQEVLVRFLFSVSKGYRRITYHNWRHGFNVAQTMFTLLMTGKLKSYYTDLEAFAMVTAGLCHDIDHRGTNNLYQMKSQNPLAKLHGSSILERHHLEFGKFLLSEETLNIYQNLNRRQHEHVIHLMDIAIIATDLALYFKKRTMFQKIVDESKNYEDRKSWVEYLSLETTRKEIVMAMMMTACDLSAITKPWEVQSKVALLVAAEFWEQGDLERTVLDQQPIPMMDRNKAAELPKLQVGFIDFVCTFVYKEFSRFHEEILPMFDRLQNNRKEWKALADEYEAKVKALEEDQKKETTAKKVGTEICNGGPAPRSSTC
Text: PDE6 may be purified from bovine retina as described by: P. Catty and P. Deterre, “Activation and solubilization of the retinal cGMP-specific phosphodiesterase by limited proteolysis”, Eur. J. Biochem., 1991, 199, 263-269; A. Tar et al. “Purification of bovine retinal cGMP phosphodiesterase”, Methods in Enzymology, 1994, 238, 3-12; and/or D. Srivastava et al. “Effects of magnesium on cyclic GMP hydrolysis by the bovine retinal rod cyclic GMP phosphodiesterase”, Biochem. J., 1995, 308, 653-658.
as §1, §2

T1 sequence (Q07343 1-564 isoform Q07343-2): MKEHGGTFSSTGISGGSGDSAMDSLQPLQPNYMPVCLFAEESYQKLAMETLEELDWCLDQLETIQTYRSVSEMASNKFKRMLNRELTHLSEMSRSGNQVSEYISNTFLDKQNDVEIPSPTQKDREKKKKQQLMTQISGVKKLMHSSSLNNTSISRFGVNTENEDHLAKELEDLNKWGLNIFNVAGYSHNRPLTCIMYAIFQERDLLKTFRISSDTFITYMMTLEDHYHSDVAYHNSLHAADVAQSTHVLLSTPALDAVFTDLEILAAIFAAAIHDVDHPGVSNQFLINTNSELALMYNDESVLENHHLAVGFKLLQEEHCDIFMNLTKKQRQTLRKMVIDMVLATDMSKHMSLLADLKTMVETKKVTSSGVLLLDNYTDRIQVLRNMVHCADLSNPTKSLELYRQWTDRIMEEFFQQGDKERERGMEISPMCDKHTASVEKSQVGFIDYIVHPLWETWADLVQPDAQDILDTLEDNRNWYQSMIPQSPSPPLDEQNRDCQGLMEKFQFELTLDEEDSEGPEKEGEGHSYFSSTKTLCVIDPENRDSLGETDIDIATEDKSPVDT
Human recombinant PDE4D, sequence (Q08499 1-673 isoform Q08499-2): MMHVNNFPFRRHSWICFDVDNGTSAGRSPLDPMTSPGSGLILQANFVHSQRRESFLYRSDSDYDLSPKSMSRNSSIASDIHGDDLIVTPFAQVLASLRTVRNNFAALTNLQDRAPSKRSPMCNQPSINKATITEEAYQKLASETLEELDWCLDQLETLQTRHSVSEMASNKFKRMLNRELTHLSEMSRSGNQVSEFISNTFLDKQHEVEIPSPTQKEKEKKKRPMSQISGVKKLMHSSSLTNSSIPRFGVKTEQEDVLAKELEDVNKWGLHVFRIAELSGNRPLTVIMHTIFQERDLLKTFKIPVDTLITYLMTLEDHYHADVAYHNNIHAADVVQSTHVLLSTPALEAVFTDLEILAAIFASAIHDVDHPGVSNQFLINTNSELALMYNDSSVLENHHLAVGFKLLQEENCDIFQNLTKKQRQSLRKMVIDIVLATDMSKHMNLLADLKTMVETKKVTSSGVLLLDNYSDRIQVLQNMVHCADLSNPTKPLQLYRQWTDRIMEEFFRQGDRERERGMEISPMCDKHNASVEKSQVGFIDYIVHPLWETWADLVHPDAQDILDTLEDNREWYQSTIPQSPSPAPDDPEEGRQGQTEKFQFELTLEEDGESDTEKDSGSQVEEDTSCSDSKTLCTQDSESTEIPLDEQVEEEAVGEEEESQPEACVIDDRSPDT

Row | Structure (SMILES) | IC50 [1] [nM] | IC50 [2] [nM] | IC50 [3] [nM] | IC50 [4] [nM]
1 | Cc1nc([S+](C)[O-])cc2c(Nc3cccc4c3CCO4)c(C(N)=O)cnc12 (racemic) [Example 3, (±)-4-(2,3-Dihydro-1-benzofuran-4-ylamino)-8-methyl-6-(methylsulfinyl)-1,7-naphthyridine-3-carboxamide] | 0.398 | 0.631 | > 10000 | > 10000
2 | CSc1cc2c(Nc3cccc4c3CCO4)c(C(N)=O)cnc2c(C)n1 [Example 1, 4-(2,3-Dihydro-1-benzofuran-4-ylamino)-8-methyl-6-(methylthio)-1,7-naphthyridine-3-carboxamide] | 0.316 | 0.316 | > 10000 | > 10000
3 | Cc1nc(S(C)(=O)=O)cc2c(Nc3cccc4c3CCO4)c(C(N)=O)cnc12 [Example 2, 4-(2,3-Dihydro-1-benzofuran-4-ylamino)-8-methyl-6-(methylsulfonyl)-1,7-naphthyridine-3-carboxamide] | 0.126 | 0.2 | > 10000 | > 10000
